Values of other authors as cited in publication PMC12326358, “Effect of Quantitative Structural Properties and Drug Formulation in Four Cannabinoids (Cannabidiol, Cannabigerol, Cannabichromene, and Cannabinol) on Their Lymphatic Transport after Enteral Administration in Rats” (Molecular Pharmaceutics, 2025).

Assays:
[1] = Beagle dogs, formulation with drug dispersed in small lipid droplets; cited from earlier work
[2] = cited from earlier work; for log P: ref literature
[3] = cited from earlier work

Structure (SMILES) | bioavailability increase [1] [fold] | solubility in long-chain triglycerides [2] [mg/g] | log P [2] | partitioning into lymph [3] | FRL ([3]; drug with prominent first-pass metabolism in the liver, ref literature) [%]
CC(C)(C)c1cc(C(C)(C)C)c(NC(=O)c2c[nH]c3ccccc3c2=O)cc1O [ivacaftor, reference compound] | 7 | – | – | – | –
COc1nc(C(Cl)(Cl)Cl)c(Cl)c(OC)c1Cl [penclomedine] | – | > 50 | > 5 | very limited partitioning into lymph | –
CCCCCCCCCCC(=O)O[C@H]1CC[C@H]2[C@@H]3CCC4=CC(=O)CC[C@]4(C)[C@H]3CC[C@]12C [testosterone undecanoate] | – | – | 6.7 | – | 98.5
